These results are taken from patent US20260097026A1, “INHIBITION OF AORTIC VALVE CALCIFICATION” (priority 2022, published 2026).

The test system of the test is Human valve interstitial cells (VIC). In words: Calcification inhibition in human valve interstitial cells (VIC); staining followed by spectroscopy. Format: cell-based. The conditions noted are these: VIC isolated from human aortic valves; calcification induced; test substance contacted during or after induced calcification; degree of calcification by staining and spectroscopy (FIG. 2, FIG. 3). The protocol: Human valve interstitial cells (VIC) are isolated from human aortic valves harvested during surgery for use in calcification inhibitor testing. After isolation, calcification is induced in the cells. The activity of potential inhibitors is assayed by contacting the VIC cells with the test substance during or after the induced calcification. The degree of calcification is measured by staining followed by spectroscopy. FIG. 1 provides photomicrographs of control cells (no induced calcification, left panel), cells where calcification is induced (middle panel), and calcification in the presence of an inhibitor (right panel).
In the case of `COCCCOc1ccnc(C[S+]([O-])c2nc3ccccc3[nH]2)c1C` (stereo not shown) [Rabeprazole, rabeprazole], the inhibition of calcification result is “inhibition of calcification”.
For `Cc1c(OCC(F)(F)F)ccnc1C[S+]([O-])c1nc2ccccc2[nH]1` (stereo not shown) [lansoprazole], the inhibition of calcification result is “inhibition of calcification”.
As for `COc1ccc2[nH]c([S+]([O-])Cc3ncc(C)c(OC)c3C)nc2c1` (stereo not shown) [omeprazole], the inhibition of calcification result was “inhibition of calcification”.
Take `COc1ccnc(C[S+]([O-])c2nc3cc(OC(F)F)ccc3[nH]2)c1OC` (stereo not shown) [pantoprazole]: the inhibition of calcification result was “inhibition of calcification”.
